Assay results from patent US7491827B2, “Aryl sulfonamides useful as inhibitors of chemokine receptor activity” (Millennium Pharmaceuticals, Inc., priority 2003, dated 2009).

These compounds were tested against T1, cloned human CCR8 receptor stably expressed in L1.2 cells (Homo sapiens, UniProt P51685) (assay: whole cell binding screen: inhibition of biotinylated human I309 binding to CCR8 (FMAT 8100 HTS)). Settings: Ki of compounds to inhibit I-309 binding to CCR8, L1.2/hCCR8 cells, biotinylated human I-309, 10 point concentration response starting at 10 μM.
T1 construct: expressed in transfected cells
T1 sequence (P51685 whole entry): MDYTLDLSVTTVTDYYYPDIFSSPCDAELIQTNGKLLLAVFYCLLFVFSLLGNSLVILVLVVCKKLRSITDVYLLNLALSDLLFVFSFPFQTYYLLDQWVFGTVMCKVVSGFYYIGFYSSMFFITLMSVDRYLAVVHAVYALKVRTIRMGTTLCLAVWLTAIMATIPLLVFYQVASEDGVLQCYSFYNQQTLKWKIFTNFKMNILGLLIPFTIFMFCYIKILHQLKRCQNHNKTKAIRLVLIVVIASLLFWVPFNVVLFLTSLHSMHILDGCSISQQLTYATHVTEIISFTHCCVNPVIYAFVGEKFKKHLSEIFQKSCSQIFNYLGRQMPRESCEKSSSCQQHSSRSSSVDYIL
Excerpt: This whole cell binding screen evaluates the ability of compounds to inhibit biotinlyated human I309 binding to the cloned human CCR8 receptor stably expressed in L1.2 cells. Human CCR8 gene was amplified by PCR using PFU polymerase under standard conditions from human genomic DNA purchased from Stratagene. The PCR primers used were:
The 5′ and 3′ primers contained flanking enzyme sites (Bam Hi and Not 1,respectively), which were used to subclone the gene into pcDNA3.1. […] The CCR8 vector was then transfected into L1.2 cells (murine pre-B cells) by electroporation.
Compounds were screened using the FMAT™ 8100 HTS System (purchased from Applied Biosystems).
A suspension was prepared of L1.2/hCCR8 cells at 4.0×10^5 cells/mL in a binding buffer (Buffer consisting of Hanks Balanced Salt Solution (without phenol red), 10 mM HEPES, 0.1% Fatty Acid Free BSA, 0.02% Sodium Azide).
Dilution series of 10 mM stock concentrations of the test compounds were prepared in DMSO and further diluted into binding buffer defined above) to three times the final assay concentration.
10 point concentration response curve is constructed for each compound, starting at 10 μM (final assay concentration in Binding Buffer). […] The components were mixed in wells by covering the plate with aluminum foil and rotating for 0.5 hours. […] Average fluorescence reported for each concentration was normalized to percent inhibition based on negative (no inhibitor) and positive (100 nM excess unlabeled I309 (R and D Systems)) controls.

**Q.** `CCOC(=O)N1CCC(NS(=O)(=O)c2ccc3cccc(NC(=O)c4ccccc4)c3c2)CC1` [Compound H-51, 4-(8-Benzoylamno-naphthalene-2-sulfonylamino)-piperidine-1-carboxylic acid ethyl ester] was tested. Which Ki did it give?
**A.** < 30 µM

**Q.** For `CC(=O)N1CCC(NS(=O)(=O)c2ccc(NC(=O)c3ccccc3C)c3ccccc23)CC1` [Compound C-49, N-[4-(1-Acetyl-piperidin-4-ylsulfamoyl)-naphthalen-1-yl]-2-methyl-benzamide], which Ki is on record?
**A.** < 0.5 µM

**Q.** How did the Ki turn out when `CCCC(=O)N1CCC(NS(=O)(=O)c2ccc(NC(=O)c3ccccc3C)c3ccccc23)CC1` [Compound C-35, N-[4-(1-Butyryl-piperidin-4-ylsulfamoyl)-naphthalen-1-yl]-2-methyl-benzamide] was run?
**A.** < 0.5 µM

Same assay, conditions: L1.2/hCCR8 cells, biotinylated human I-309, 10 point concentration response starting at 10 μM; read-out: Ki of compounds to inhibit I-309 binding to CCR8

**Q.** With `Cc1ccccc1C(=O)Nc1ccc(S(=O)(=O)NC2CCN(S(=O)(=O)c3ccccc3)CC2)c2ccccc12` [Compound C-58, N-[4-(1-Benzenesulfonyl-piperidin-4-ylsulfamoyl)-naphthalen-1-yl]-2-methyl-benzamide] as the compound, how does the Ki read?
**A.** < 0.5 µM

**Q.** With `CCCC(=O)N1CC[C@H](NS(=O)(=O)c2ccc(NC(=O)c3ccccc3C)c3ccccc23)[C@H](C)C1` (racemic) [Compound C-139, (±)-cis-N-[4-(1-Butryl-3-methyl-piperidin-4-ylsuffamoyl)-naphthalen-1-yl]-2-methyl-benzamide] as the compound, how does the Ki read?
**A.** < 0.5 µM

**Q.** How did the Ki turn out when `CCOC(=O)N1CC[C@@H](NS(=O)(=O)c2ccc(NC(=O)c3ccccc3C)c3ccccc23)[C@@H](C)C1` (single isomer, unassigned) [Compound C-138, cis-3-Methyl-4-[4-(2-methyl-benzoylamino)-naphthalene-1-sulfonylamino]-piperidine-1-carboxylic acid ethyl ester] was run?
**A.** < 1 µM

**Q.** How did the Ki turn out when `O=C(Nc1cccc2c(S(=O)(=O)NC3CCCCC3)cccc12)c1ccccc1` [Compound H-5, N-(5-Cyclohexylsulfamoyl-naphthalen-1-yl)-benzamide] was run?
**A.** < 0.5 µM

**Q.** How did the Ki turn out when `Cc1ccccc1C(=O)Nc1ccc(S(=O)(=O)N[C@H]2CCN(Cc3ccccc3)C[C@H]2C)c2c1CCCC2` (racemic) [Compound E-13, (±)-cis-N-[4-(1-Benzyl-3-methyl-piperidin-4-ylsulfamoyl)-5,6,7,8-tetrahydro-naphthalen-1-yl]-2-methyl-benzamide] was run?
**A.** < 1 µM

**Q.** How did the Ki turn out when `CCOC(=O)N1CCC(NS(=O)(=O)c2cccc3c(NC(=O)N4CCOCC4)cccc23)CC1` [Compound H-17, 4-{5-[(Morpholine-4-carbonyl)-amino]-naphthalene-1-sulfonylamino}-piperidine-1-carboxylic acid ethyl ester] was run?
**A.** < 1 µM

**Q.** How did the Ki turn out when `CCOC(=O)N1CCC(NS(=O)(=O)c2ccc(NC(=O)c3cc(C)ccc3C)c3ccccc23)CC1` [Compound B-28, 4-[4-(2,5-Dimethyl-benzoylamino)-naphthalene-1-sulfonylamino]-piperidine-1-carboxylic acid ethyl ester] was run?
**A.** < 0.5 µM

**Q.** With `CCOC(=O)N1CC[C@H](NS(=O)(=O)c2ccc(N)c3ccccc23)[C@H](C)C1` (racemic) [Compound D-2, (±)-(cis)4-(4-amino-naphthalene-1-sulfonylamino)-3-methyl-piperidine-1-carboxylic acid ethyl ester] as the compound, how does the Ki read?
**A.** < 30 µM

**Q.** `CN1CCC(C(=O)Nc2ccc(S(=O)(=O)NC3CCNCC3)c3ccccc23)CC1` [Compound D-17, 1-Methyl-piperidine-4-carboxylic acid [4-(piperidin-4-ylsulfamoyl)-naphthalen-1-yl]-amide] was tested. Which Ki did it give?
**A.** < 30 µM

**Q.** Which Ki does the source give for `Cc1ccccc1C(=O)Nc1ccc(S(=O)(=O)NC2CCN(C(=O)N(C)C)C2)c2c1CCCC2` (racemic) [Compound E-32, (±)-3-[4-(2-Methyl-benzoylamino)-5,6,7,8-tetrahydro-naphthalene-1-sulfonylamino]-pyrrolidine-1-carboxylic acid dimethylamide] here?
**A.** < 0.5 µM

**Q.** Which Ki does the source give for `CCOC(=O)N1CCC(NS(=O)(=O)c2ccc(NC(=O)c3cccc(C)c3C)c3ccccc23)CC1` [Compound B-27] here?
**A.** < 0.5 µM

**Q.** Which Ki does the source give for `CCOC(=O)N1C[C@@H](C)[C@@H](NS(=O)(=O)c2ccc(NC(=O)c3ccccc3C)c3ccccc23)[C@@H](C)C1` [Compound C-70, (±)-(cis,cis)-3,5-Dimethyl-4-[4-(2-methyl-benzoylamino)-naphthalene-1-sulfonylamino]-piperidine-1-carboxylic acid ethyl ester] here?
**A.** < 1 µM

**Q.** `CCOC(=O)N1CCC(NS(=O)(=O)c2ccc(NC(=O)c3cccc(C)c3)c3ccccc23)CC1` [Compound B-13, 4-[4-(3-Methyl-benzoylamino)-naphthalene-1-sulfonylamino]-piperidine-1-carboxylic acid ethyl ester] was tested. Which Ki did it give?
**A.** < 1 µM

**Q.** How did the Ki turn out when `O=C(Nc1ccc(S(=O)(=O)NC2CCN(C(=O)C3CCCC3)CC2)c2ccccc12)c1ccccc1` [Compound C-5, N-[4-(1-Cyclopentanecarbonyl-piperidin-4-ylsulfamoyl)-naphthalen-1-yl]-benzamide] was run?
**A.** < 0.5 µM

**Q.** With `CCOC(=O)N1CCC(NS(=O)(=O)c2cccc3c(NC(=O)c4cc(C)oc4C)cccc23)CC1` [Compound H-20, 4-{5-[(2,5-Dimethyl-furan-3-carbonyl)-amino]-naphthalene-1-suffonylamino}-piperidine-1-carboxylic acid ethyl ester] as the compound, how does the Ki read?
**A.** < 1 µM

**Q.** For `Cc1ccccc1C(=O)Nc1ccc(S(=O)(=O)NC2(C)CCNCC2)c2ccccc12` [Compound J-49], which Ki is on record?
**A.** < 0.5 µM

**Q.** How did the Ki turn out when `CNC(=O)N1CCC(NS(=O)(=O)c2ccc(NC(=O)c3ccccc3C)c3c2CCCC3)CC1` [Compound E-22, 4-[4-(2-Methyl-benzoylamino)-5,6,7,8-tetrahydro-naphthalene-1-sulfonylamino]-piperidine-1-carboxylic acid methylamide] was run?
**A.** < 0.5 µM

**Q.** With `CCOC(=O)N1CC[C@H](NS(=O)(=O)c2cccc3c(C(=O)Nc4ccccc4C)cccc23)[C@@H](C)C1` (racemic) [Compound H-40, (±)-trans-3-Methyl-4-(5-o-tolylcarbamoyl-naphthalene-1-sulfonylamino)-piperidine-1-carboxylic acid ethyl ester] as the compound, how does the Ki read?
**A.** < 0.5 µM

**Q.** For `CCOC(=O)N1CCC(NS(=O)(=O)c2cccc3c(C(=O)Nc4cccc(C)c4C)cccc23)CC1` [Compound H-36, 4-[5-(2,3-Dimethyl-phenylcarbamoyl)-naphthalene-1-sulfonylamno]-piperidine-1-carboxylic acid ethyl ester], which Ki is on record?
**A.** < 0.5 µM

**Q.** For `COc1ccc(NS(=O)(=O)c2ccc(NC(=O)c3ccccc3C)c3ccccc23)cc1` [Compound B-11, N-[4-(4-Methoxy-phenylsulfamoyl)-naphthalen-1-yl]-2-methyl-benzamide], which Ki is on record?
**A.** < 0.5 µM

**Q.** For `Cc1ccccc1C(=O)Nc1ccc(S(=O)(=O)N[C@H]2CCNC[C@@H]2CC(C)C)c2ccccc12` [Compound J-56], which Ki is on record?
**A.** < 5 µM

**Q.** For `CCOC(=O)N1CCC(NS(=O)(=O)c2ccc(CNCc3ccoc3)c3ccccc23)CC1` [Compound G-14, 4-(4-{[(Furan-3-ylmethyl)-amino]-methyl}-naphthalene-1-sulfonylamino)-piperidine-1-carboxylic acid ethyl ester], which Ki is on record?
**A.** < 0.5 µM

**Q.** For `CCCC(=O)N1CCC(NS(=O)(=O)c2ccc(NC(=O)c3ccccc3C)c3ccccc23)C(C)(C)C1` (racemic) [Compound C-23, (±)-N-[4-(1-Butyryl-3,3-dimethyl-piperidin-4-ylsulfamoyl)-naphthalen-1-yl]-2-methyl-benzamide], which Ki is on record?
**A.** < 30 µM

**Q.** With `Cc1ccccc1C(=O)Nc1ccc(S(=O)(=O)N[C@@H]2[C@H](C)CNC[C@@H]2C)c2ccccc12` [Compound C-68, (±)-(cisscis)-N-[4-(3,5-Dimethyl-piperidin-4-ylsulfamoyl)-naphthalen-1-yl]-2-methyl-benzamide] as the compound, how does the Ki read?
**A.** < 30 µM

**Q.** Which Ki does the source give for `CCCC(=O)N1CCC(NS(=O)(=O)c2cccc3c(C(=O)Nc4ccccc4C)cccc23)CC1` [Compound H-39, 5-(1-Butyryl-piperidin-4-ylsulfamoyl)-naphthalene-1-carboxylic acid o-tolylamide] here?
**A.** < 0.5 µM

**Q.** How did the Ki turn out when `CCNC(=O)N1CCC(NS(=O)(=O)c2ccc(NC(=O)c3ccccc3C)c3ccccc23)C(C)(C)C1` (racemic) [Compound C-21, (±)-3,3-Dimethyl-4-[4-(2-methyl-benzoylamino)-naphthalene-1-sulfonylamino]-piperidine-1-carboxylic acid ethylamide] was run?
**A.** < 0.5 µM

**Q.** With `CCOC(=O)N1CC[C@H](NS(=O)(=O)c2ccc(NC(=O)c3ccccc3C)c3ccccc23)[C@@H](CO)C1` (racemic) [Compound C-82, (±)-(trans)-3—Hydroxymethyl-4-[4-(2-methyl-benzoylamino)-naphthalene-1-sulfonylamino]-piperidine-1-carboxylic acid ethyl ester] as the compound, how does the Ki read?
**A.** < 0.5 µM

**Q.** How did the Ki turn out when `CCOC(=O)N1CC[C@H](NS(=O)(=O)c2ccc(NC(=O)c3ccccc3C)c3ncccc23)[C@H](C)C1` [Compound J-40, (3R, 4S)-3-Methyl-4-[8-(2-methyl-benzoylamino)-quinoline-5-sulfonylamino]-piperidine-1-carboxylic acid ethyl ester] was run?
**A.** < 0.5 µM

**Q.** How did the Ki turn out when `CC[C@H](N)C(=O)N1CCC(NS(=O)(=O)c2ccc(NC(=O)c3ccccc3C)c3ccccc23)CC1` [Compound C-126, (S)-N-{4-[1-(2-Amino-butyryl)-piperidin-4-ylsulfamoyl]-naphthalen-1-yl}-2-methyl-benzamide] was run?
**A.** < 0.5 µM
